Where “and” joins values, the source holds several entries; their conditions need not be identical. Equal values may be shown once. Inconclusive results and toxic doses are left out.
Test system: P388 leukemia ip, CD2F1 mice, survival T/C
Test: NCI In Vivo Anticancer Drug Screen. Data for tumor model P388 Leukemia (intraperitoneal) in CD2F1 (CDF1) mice
Conditions: endpoint: median survival time, higher = longer survival
Outline: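 Mice carrying the transplanted tumor received test compound or vehicle. Survival was recorded in each group, and the value is the treated-group measurement divided by that of the vehicle-treated control group.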

[1] = dose: 100.0 mg/kg/injection, schedule: Q04DX003 (ip), vehicle: saline
[2] = dose: 200.0 mg/kg/injection, schedule: Q04DX003 (ip), vehicle: saline
[3] = dose: 50.0 mg/kg/injection, schedule: Q01DX005 (ip), vehicle: Klucel (hydroxypropylcellulose) (HPC)
[4] = dose: 100.0 mg/kg/injection, schedule: Q01DX005 (ip), vehicle: Klucel (hydroxypropylcellulose) (HPC)
[5] = dose: 200.0 mg/kg/injection, schedule: Q01DX005 (ip), vehicle: Klucel (hydroxypropylcellulose) (HPC)
[6] = dose: 60.0 mg/kg/injection, schedule: Q01DX005 (ip), vehicle: saline with Tween-80
[7] = dose: 120.0 mg/kg/injection, schedule: Q01DX005 (ip), vehicle: saline with Tween-80
[8] = dose: 25.0 mg/kg/injection, schedule: Q01DX009 (ip), vehicle: Klucel (hydroxypropylcellulose) (HPC)
[9] = dose: 50.0 mg/kg/injection, schedule: Q01DX009 (ip), vehicle: Klucel (hydroxypropylcellulose) (HPC)
[10] = dose: 100.0 mg/kg/injection, schedule: Q01DX009 (ip), vehicle: Klucel (hydroxypropylcellulose) (HPC)
[11] = dose: 200.0 mg/kg/injection, schedule: Q01DX009 (ip), vehicle: Klucel (hydroxypropylcellulose) (HPC)
[12] = dose: 100.0 mg/kg/injection, schedule: Q04DX003 (ip), vehicle: saline with Tween-80
[13] = dose: 200.0 mg/kg/injection, schedule: Q04DX003 (ip), vehicle: saline with Tween-80
[14] = dose: 400.0 mg/kg/injection, schedule: Q04DX003 (ip), vehicle: saline with Tween-80
[15] = dose: 50.0 mg/kg/injection, schedule: Q01DX009 (ip), vehicle: saline with Tween-80
[16] = dose: 100.0 mg/kg/injection, schedule: Q01DX009 (ip), vehicle: saline with Tween-80
[17] = dose: 200.0 mg/kg/injection, schedule: Q01DX009 (ip), vehicle: saline with Tween-80

BrC1CCCCC(Br)C12OCCO2 (stereo not given) was tested, and the T/C [1] was 107 % of control, the T/C [2] was 104 % of control and the T/C (dose: 400.0 mg/kg/injection, schedule: Q04DX003 (ip), vehicle: saline) was 106 % of control.
With CN1C(=O)C(=O)N(C)C(=O)C1=O the T/C [3] was 100 % of control, the T/C [4] was 93 % of control and the T/C [5] was 103 % of control.
In the case of CC(C)(C)OC(=O)NC(CCCCNC=O)C(=O)O (stereo not given), the T/C (dose: 50.0 mg/kg/injection, schedule: Q01DX005 (ip), vehicle: saline with Tween-80) was 95 % of control, the T/C (dose: 100.0 mg/kg/injection, schedule: Q01DX005 (ip), vehicle: saline with Tween-80) was 96 % of control and the T/C (dose: 200.0 mg/kg/injection, schedule: Q01DX005 (ip), vehicle: saline with Tween-80) was 104 % of control.
COc1cc(-c2nnc(C3CCC(=O)N3Cc3ccccc3)o2)cc(OC)c1OC (stereo not given) was tested, and the T/C [6] was 103 % of control, the T/C [7] was 100 % of control and the T/C (dose: 240.0 mg/kg/injection, schedule: Q01DX005 (ip), vehicle: saline with Tween-80) was 97 % of control.
O=c1[nH]cnc2nc(Cl)[nH]c12 was tested, and the T/C [3] was 98 % of control, the T/C [4] was 98 % of control and the T/C [5] was 95 % of control.
In the case of S=c1[nH]ccn1-c1ccccc1, the T/C [8] was 99 % of control, the T/C [9] was 104 % of control and the T/C [10] was 109 % of control. The T/C [11] was 95 % of control.
In the case of Cc1ccc(S(=O)(=O)C(Sc2ccccc2)=S=NC(C)(C)C)cc1, the T/C [9] was 104 % of control, the T/C [10] was 98 % of control and the T/C [11] was 109 % of control.
In the case of C/C(=C\C=C/c1ccoc1)C(=O)c1cc(C)co1, the T/C (dose: 6.25 mg/kg/injection, schedule: Q01DX009 (ip), vehicle: Klucel (hydroxypropylcellulose) (HPC)) was 106 % of control, the T/C (dose: 12.5 mg/kg/injection, schedule: Q01DX009 (ip), vehicle: Klucel (hydroxypropylcellulose) (HPC)) was 103 % of control and 95 % of control and the T/C [8] was 106 % of control and 96 % of control. The T/C [9] was 115 % of control and 96 % of control and the T/C [10] was 104 % of control.
With COc1ccc2ccccc2c1C1=CC(c2ccccc2)C(C(=O)Cc2ccccc2)C(=O)N1 (stereo not given) the T/C [12] was 101 % of control, the T/C [13] was 92 % of control and the T/C [14] was 101 % of control.
In the case of Cc1nn(C(=O)c2ccncc2)c(C)c1N=Nc1cccc([N+](=O)[O-])c1, the T/C [1] was 89 % of control and the T/C [2] was 93 % of control.
For CN(C)c1ncnc2c1ccn2COCCO, the T/C (dose: 50.0 mg/kg/injection, schedule: Q01DX005 (ip), vehicle: distilled water + alcohol) was 100 % of control, the T/C (dose: 100.0 mg/kg/injection, schedule: Q01DX005 (ip), vehicle: distilled water + alcohol) was 98 % of control and the T/C (dose: 200.0 mg/kg/injection, schedule: Q01DX005 (ip), vehicle: distilled water + alcohol) was 107 % of control.
With O=C1C(Cl)=C(Cl)C(=O)C(/C=C/N2CCOCC2)=C1Cl the T/C (dose: 50.0 mg/kg/injection, schedule: Q01DX001 (ip), vehicle: saline with Tween-80) was 102 % of control and the T/C (dose: 100.0 mg/kg/injection, schedule: Q01DX001 (ip), vehicle: saline with Tween-80) was 98 % of control.
O/N=C1\CCCCC1C(O)c1c(Cl)cccc1Cl (stereo not given) was tested, and the T/C [15] was 102 % of control, the T/C [16] was 103 % of control and the T/C [17] was 96 % of control.
For CCOP(=O)(O)SP(=O)(O)OCC, the T/C (dose: 25.0 mg/kg/injection, schedule: Q01DX001 (ip), vehicle: saline) was 100 % of control, the T/C (dose: 50.0 mg/kg/injection, schedule: Q01DX001 (ip), vehicle: saline) was 102 % of control and the T/C (dose: 100.0 mg/kg/injection, schedule: Q01DX001 (ip), vehicle: saline) was 102 % of control and 100 % of control. For the same compound, the T/C (dose: 200.0 mg/kg/injection, schedule: Q01DX001 (ip), vehicle: saline) was 101 % of control and the T/C (dose: 400.0 mg/kg/injection, schedule: Q01DX001 (ip), vehicle: saline) was 101 % of control.
For O=C(c1ccco1)C(O)NC(=S)c1ccc(Cl)cc1 (stereo not given), the T/C [15] was 113 % of control and 117 % of control and the T/C [16] was 116 % of control.
Cc1ccc(NC(=O)N2CCCCC2)cc1[N+](=O)[O-] was tested, and the T/C [3] was 99 % of control, the T/C [4] was 98 % of control and the T/C [5] was 96 % of control.
CC(/C=C/c1cccc(C)c1)=N\NC(N)=O was tested, and the T/C (dose: 60.0 mg/kg/injection, schedule: Q01DX005 (ip), vehicle: Klucel (hydroxypropylcellulose) (HPC)) was 107 % of control, the T/C (dose: 120.0 mg/kg/injection, schedule: Q01DX005 (ip), vehicle: Klucel (hydroxypropylcellulose) (HPC)) was 104 % of control and the T/C (dose: 240.0 mg/kg/injection, schedule: Q01DX005 (ip), vehicle: Klucel (hydroxypropylcellulose) (HPC)) was 115 % of control.
With CCc1cccc(CC)c1NC(=O)NN(CC)CC the T/C [6] was 93 % of control and the T/C [7] was 103 % of control.
CCN(CC)C1=NS(=O)(=O)c2ccccc2C(SC)=C1C was tested, and the T/C (dose: 100.0 mg/kg/injection, schedule: Q04DX002 (ip), vehicle: saline with Tween-80) was 106 % of control, the T/C (dose: 200.0 mg/kg/injection, schedule: Q04DX002 (ip), vehicle: saline with Tween-80) was 100 % of control and the T/C (dose: 400.0 mg/kg/injection, schedule: Q04DX002 (ip), vehicle: saline with Tween-80) was 100 % of control.
S=c1[nH]c2cc(Cl)ccc2s1 was tested, and the T/C [16] was 109 % of control, the T/C [12] was 100 % of control and the T/C [13] was 104 % of control. For the same compound, the T/C [14] was 109 % of control.
With CCCOc1ccc(-c2nc(-c3ccc([N+](=O)[O-])cc3)cs2)cc1 the T/C [9] was 113 % of control, the T/C [10] was 104 % of control and the T/C [11] was 104 % of control.
With ClCCN(CCCl)c1ccc(N=Cc2ccccc2)cc1 the T/C (dose: 1.56 mg/kg/injection, schedule: Q01DX009 (ip), vehicle: saline with Tween-80) was 159 % of control and 167 % of control, the T/C (dose: 3.12 mg/kg/injection, schedule: Q01DX009 (ip), vehicle: saline with Tween-80) was 179 % of control and 205 % of control and the T/C (dose: 6.25 mg/kg/injection, schedule: Q01DX009 (ip), vehicle: saline with Tween-80) was 230 % of control.
CC1CCCC(C2CC3CCCCC3C(N)[N-]2)[N-]1.CC1CCCC(C2CC3CCCCC3C(N)[N-]2)[N-]1.O=[N+]([O-])O.[Cu+] (stereo not given) was tested, and the T/C (dose: 25.0 mg/kg/injection, schedule: Q04DX002 (ip), vehicle: suspension in saline) was 93 % of control, the T/C (dose: 50.0 mg/kg/injection, schedule: Q04DX002 (ip), vehicle: suspension in saline) was 97 % of control and the T/C (dose: 100.0 mg/kg/injection, schedule: Q04DX002 (ip), vehicle: suspension in saline) was 99 % of control and 97 % of control. The T/C (dose: 200.0 mg/kg/injection, schedule: Q04DX002 (ip), vehicle: suspension in saline) was 96 % of control.
In the case of CSC(=Nc1cccnc1)NC#N, the T/C [9] was 96 % of control, the T/C [10] was 93 % of control and the T/C [11] was 92 % of control.
CSCCCNC(=O)c1csc(CCNC(=O)c2ccccc2)n1 was tested, and the T/C [16] was 104 % of control, the T/C [17] was 109 % of control and the T/C (dose: 400.0 mg/kg/injection, schedule: Q01DX009 (ip), vehicle: saline with Tween-80) was 104 % of control.
CCCCCC1(c2ccccc2)CCCC(C#N)C1=O (stereo not given) was tested, and the T/C [12] was 101 % of control and the T/C [13] was 88 % of control.
For C=C[C@H]1[C@H](OC2OC(CO)C(O)C(O)C2O)OC=C2C(=O)N3CCS[C@H]3C[C@H]21 (stereo not given in full), the T/C (dose: 9.38 mg/kg/injection, schedule: Q01DX005 (ip), vehicle: Klucel (hydroxypropylcellulose) (HPC)) was 97 % of control, the T/C (dose: 18.75 mg/kg/injection, schedule: Q01DX005 (ip), vehicle: Klucel (hydroxypropylcellulose) (HPC)) was 98 % of control and the T/C (dose: 37.5 mg/kg/injection, schedule: Q01DX005 (ip), vehicle: Klucel (hydroxypropylcellulose) (HPC)) was 107 % of control. The T/C (dose: 75.0 mg/kg/injection, schedule: Q01DX005 (ip), vehicle: Klucel (hydroxypropylcellulose) (HPC)) was 95 % of control and the T/C (dose: 150.0 mg/kg/injection, schedule: Q01DX005 (ip), vehicle: Klucel (hydroxypropylcellulose) (HPC)) was 98 % of control.
In the case of CCOC(=O)c1ccc(NC(=O)Nc2scc[n+]2C)cc1, the T/C (dose: 12.5 mg/kg/injection, schedule: Q01DX009 (ip), vehicle: distilled water + Tween-80) was 93 % of control, the T/C (dose: 25.0 mg/kg/injection, schedule: Q01DX009 (ip), vehicle: distilled water + Tween-80) was 102 % of control and the T/C (dose: 50.0 mg/kg/injection, schedule: Q01DX009 (ip), vehicle: distilled water + Tween-80) was 108 % of control. For the same compound, the T/C (dose: 100.0 mg/kg/injection, schedule: Q01DX009 (ip), vehicle: distilled water + Tween-80) was 100 % of control and the T/C (dose: 200.0 mg/kg/injection, schedule: Q01DX009 (ip), vehicle: distilled water + Tween-80) was 90 % of control.
